# Test system: fibroblasts
# Assay: fibroblast cytotoxicity test (MTT)
# Assay type: cell-based
# Excerpt: In FIG. 3, the following meanings apply: Mic: miconazole, Tri: trimetoprim, Rif: rifampicin, Irg: Irgasan, Gen: gentamicin, Fus: fusidic acid, Oct: octenidine, Ben: benzylpenicillin, Chl: chlorohexidine, Cli: clindamycine.
smiles,measurement,setting,value
"Oc1cc(Cl)ccc1Oc1ccc(Cl)cc1Cl [Irgasan, 5-chloro-2-(2,4-dichlorophenoxy)phenol]",maximum concentration up to which fibroblasts are hardly inhibited and the substance is non-toxic,"FIG. 3, MTT",≤ 10 µg/mL
same,adverse affection in fibroblast-cytotoxicity test,"Irgasan release (cm^2) of 2-4 mg/I, release rates for inhibition zones of about 20 mm",only a minimum adverse affection

# From patent publication US12383699B2, “Catheter attachment made of plastic that contains molecularly dispersed polychlorinated phenoxyphenol (PCPP)” (priority 2017, dated 2025)
